In patent US20260250318A1, “COMPOSITIONS AND METHODS FOR CROSSING THE BLOOD BRAIN BARRIER” (VOYAGER THERAPEUTICS, INC., priority 2022, published 2026):

Columns and labels:
[1] = test system: brains, heart, liver, muscle, and DRG of the NHPs; assay: Maturation of TTM-001 and TTM-002 capsids, NGS enrichment in NHP tissues; format: in vivo; conditions: relative to AAV9 control
Method in brief: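 Variants carry mutations within and flanking the loop IV peptide insert: positions 450–466 were triplet-randomized, while positions 449–466 received low-frequency point mutations. The combined pool went into two NHPs, and each peptide was scored by NGS enrichment ratio against AAV9.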

brain = assay: Matured TTM-001 and TTM-002 variants, NGS enrichment in mouse brain; format: in vivo, mice; conditions: relative to AAV9 control
[2] = NGS fold-enrichment of matured AAV capsid variants, NHP brain, RNA
[3] = NGS fold-enrichment, DRG of NHPs
[4] = NGS fold-enrichment, RNA, brain of NHPs
[5] = NGS fold-enrichment, heart of NHPs
[6] = NGS fold-enrichment, liver DNA of NHPs
[7] = NGS fold-enrichment, liver RNA of NHPs
[8] = NGS fold-enrichment, muscle of NHPs
[9] = NGS fold-enrichment, brain of mice

Sequence | Fold Enrichment relative to AAV9, Brain (NHP) [1, 2] [fold] | Fold Enrichment relative to AAV9, DRG (NHP) ([1]; NHP DRG) [fold] | Fold Enrichment relative to AAV9, Heart (NHP) ([1]; NHP heart) [fold] | Fold Enrichment relative to AAV9, Liver DNA (NHP) ([1]; NHP liver, DNA) [fold] | Fold Enrichment relative to AAV9, Liver RNA (NHP) ([1]; NHP liver, RNA) [fold] | Fold Enrichment relative to AAV9, Muscle (NHP) ([1]; NHP muscle) [fold] | Fold Enrichment relative to AAV9, Brain (Mouse) (brain; mouse brain) [fold] | Fold Enrichment relative to AAV9, DRG (NHP) [1, 3] [fold] | Fold Enrichment relative to AAV9, Brain (NHP) [1, 4] [fold] | Fold Enrichment relative to AAV9, Heart (NHP) [1, 5] [fold] | Fold Enrichment relative to AAV9, Liver DNA (NHP) [1, 6] [fold] | Fold Enrichment relative to AAV9, Liver RNA (NHP) [1, 7] [fold] | Fold Enrichment relative to AAV9, Muscle (NHP) [1, 8] [fold] | Fold Enrichment relative to AAV9, Brain (Mouse) (brain; [9]) [fold]
KTINGSGSPHSKAQAIHT | 56.047 | 0.000 | 0.000 | 0.890 | 0.887 | 212.32 | 81.908 |  |  |  |  |  |  | 
KTINGSGSPHSKAQAIKT |  |  |  |  |  |  |  | 0.255 | 74.261 | 0.000 | 0.132 | 0.186 | 0.000 | 73.560
KTINGSGSPHSKAQAITT | 56.924 | 0.000 | 0.000 | 0.438 | 1.239 | 0.000 | 75.250 |  |  |  |  |  |  | 
KTINGSGSPHSKAQAKGT | 51.727 | 0.048 | 0.016 | 0.525 | 0.271 | 0.000 | 104.917 |  |  |  |  |  |  | 
KTINGSGSPHSKAQAKLT |  |  |  |  |  |  |  | 0.000 | 71.154 | 0.273 | 0.777 | 1.591 | 0.017 | 130.132
KTINGSGSPHSKAQAMHT |  |  |  |  |  |  |  | 0.000 | 62.756 | 0.000 | 0.393 | 0.976 | 0.010 | 84.056
KTINGSGSPHSKAQAPAT |  |  |  |  |  |  |  | 0.000 | 61.934 | 0.169 | 0.197 | 0.696 | 0.015 | 127.420
KTINGSGSPHSKAQAPST |  |  |  |  |  |  |  | 0.200 | 60.696 | 0.005 | 0.263 | 0.751 | 0.000 | 115.528
KTINGSGSPHSKAQDRPT |  |  |  |  |  |  |  | 0.132 | 70.831 | 0.006 | 0.379 | 0.039 | 0.000 | 66.800
KTINGSGSPHSKAQDRQS | 55.137 | 1.146 | 0.016 | 0.086 | 0.644 | 0.106 | 55.701 |  |  |  |  |  |  | 
